How the values were obtained:
smallflower flatsedge = assay: Test B flood test smallflower flatsedge; assay type: in vivo, Cyperus difformis
In short: (§1)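 Each value is a visual injury score relative to controls, with 10 meaning complete control and 0 no effect. Evaluation took place twelve to sixteen days after the 2-leaf-stage plants were treated and kept in the greenhouse.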

velvetleaf = assay: Test B pre/postemergence velvetleaf; assay type: in vivo, Abutilon theophrasti; conditions: for Plant response rating, Velvetleaf: scale of 0 to 10 where 0 is no effect and 10 is complete control
In short: (§2)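 Response is a visual 0-to-10 score relative to untreated plants, where 0 means no effect and 10 means complete control, taken twelve to sixteen days after application. Treatments went onto soil at planting and onto foliage of 1- to 4-leaf plants, using a surfactant-containing non-phytotoxic solvent.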

rice = assay: Test B flood test rice; assay type: in vivo, Oryza sativa
In short: as §1

sugar beet = assay: Test B pre/postemergence sugar beet; assay type: in vivo, Beta vulgaris; conditions: for Plant response rating, Sugarbeets: scale of 0 to 10 where 0 is no effect and 10 is complete control
In short: as §2

surinam grass = assay: Test B pre/postemergence surinam grass; assay type: in vivo, Brachiaria decumbens
In short: as §2

rape = assay: Test B pre/postemergence rape; assay type: in vivo, Brassica napus; conditions: for Plant response rating, Rape: scale of 0 to 10 where 0 is no effect and 10 is complete control
In short: as §2

pigweed = assay: Test B pre/postemergence pigweed; assay type: in vivo, Amaranthus retroflexus; conditions: for Plant response rating, Redroot pigweed: scale of 0 to 10 where 0 is no effect and 10 is complete control
In short: as §2

soybean = assay: Test B pre/postemergence soybean; assay type: in vivo, Glycine max; conditions: for Plant response rating, Soybean: scale of 0 to 10 where 0 is no effect and 10 is complete control
In short: as §2

blackgrass = assay: Test B pre/postemergence blackgrass; assay type: in vivo, Alopecurus myosuroides
In short: as §2

morningglory = assay: Test B pre/postemergence morningglory; assay type: in vivo, Ipomoea hederacea; conditions: for Plant response rating, Morningglory: scale of 0 to 10 where 0 is no effect and 10 is complete control
In short: as §2

wild oat = assay: Test B pre/postemergence wild oat; assay type: in vivo, Avena fatua; conditions: for Plant response rating, Wild oats: scale of 0 to 10 where 0 is no effect and 10 is complete control
In short: as §2

bamyardgrass = assay: Test B flood test barnyardgrass; assay type: in vivo, Echinochloa crus-galli
In short: as §1

duck salad = assay: Test B flood test duck salad; assay type: in vivo, Heteranthera limosa
In short: as §1

cocklebur = assay: Test B pre/postemergence cocklebur; assay type: in vivo, Xanthium strumarium
In short: as §2

wheat = assay: Test B pre/postemergence wheat; assay type: in vivo, Triticum aestivum; conditions: for Plant response rating, Wheat: scale of 0 to 10 where 0 is no effect and 10 is complete control
In short: as §2

purple nutsedge = assay: Test B pre/postemergence purple nutsedge; assay type: in vivo, Cyperus rotundus; conditions: for Plant response rating, Nutsedge: scale of 0 to 10 where 0 is no effect and 10 is complete control
In short: as §2

corn = assay: Test B pre/postemergence corn; assay type: in vivo, Zea mays
In short: as §2

giant foxtail = assay: Test B pre/postemergence giant foxtail; assay type: in vivo, Setaria faberii
In short: as §2

crabgrass = assay: Test B pre/postemergence crabgrass; assay type: in vivo, Digitaria sanguinalis
In short: as §2

[1] = Rate 62 g/ha, flood test species, Pre-emergence, visual evaluation after twelve to sixteen days
[2] = Rate 125 g/ha, under heading Pre-emergence, flood test species, visual evaluation after twelve to sixteen days
[3] = Rate 250 g/ha, Pre-emergence (flood test species), scale 0 to 10, 0 is no effect, 10 is complete control
[4] = Rate 500 g/ha, Pre-emergence, flood test species, scale 0 to 10 (0 no effect, 10 complete control)
[5] = Postemergence, Rate 250 g/ha, scale 0 to 10
[6] = Preemergence, Rate 250 g/ha, scale 0 to 10, 0 is no effect, 10 is complete control
[7] = Preemergence, Rate 500 g/ha, scale 0 to 10, 0 is no effect, 10 is complete control
[8] = Rate 62 g/ha, Postemergence, scale 0 to 10 (0 no effect, 10 complete control)
[9] = Rate 125 g/ha, Postemergence, scale 0 to 10, 0 is no effect, 10 is complete control
[10] = Postemergence, Rate 500 g/ha, scale of 0 to 10 where 0 is no effect and 10 is complete control
[11] = Preemergence, Rate 62 g/ha, scale of 0 to 10 where 0 is no effect and 10 is complete control
[12] = Preemergence, Rate 125 g/ha, scale of 0 to 10 where 0 is no effect and 10 is complete control

COC(=O)C(C)n1c(=O)on(C(=O)N(c2ccc(F)cc2F)C(C)C)c1=O (stereo not shown) [Compound 463]
Plant response rating, S. Flatsedge (0 to 10 scale, 0 is no effect, 10 is complete control) (smallflower flatsedge; [1]): 0 | S. Flatsedge plant response rating (0 to 10 scale, 0 is no effect, 10 is complete control) (smallflower flatsedge; [2]): 0 | S. Flatsedge plant response rating (smallflower flatsedge; [3]): 0 | S. Flatsedge plant response rating (smallflower flatsedge; [4]): 0 | Velvetleaf plant response rating (velvetleaf; [5]): 0 | Plant response rating, Velvetleaf (velvetleaf; Preemergence, Rate 62 g/ha): 0 | Plant response rating, Velvetleaf (velvetleaf; Preemergence, Rate 125 g/ha): 0 | Velvetleaf plant response rating (velvetleaf; [6]): 0 | Velvetleaf plant response rating (velvetleaf; [7]): 2 | Velvetleaf plant response rating (velvetleaf; [8]): 0 | Velvetleaf plant response rating (velvetleaf; [9]): 0 | Plant response rating, Rice (0 to 10 scale, 0 is no effect, 10 is complete control) (rice; [1]): 0 | Rice plant response rating (0 to 10 scale, 0 is no effect, 10 is complete control) (rice; [2]): 0 | Rice plant response rating (rice; [3]): 0 | Rice plant response rating (rice; [4]): 0 | Sugarbeets plant response rating (sugar beet; [5]): 0 | Plant response rating, Sugarbeets (sugar beet; Preemergence, Rate 62 g/ha): 0 | Plant response rating, Sugarbeets (sugar beet; Preemergence, Rate 125 g/ha): 0 | Sugarbeets plant response rating (sugar beet; [6]): 0 | Sugarbeets plant response rating (sugar beet; [7]): 0 | Sugarbeets plant response rating (sugar beet; [8]): 0 | Sugarbeets plant response rating (sugar beet; [9]): 0 | B. signalgrass plant response rating (surinam grass; Postemergence, Rate 250 g/ha, scale 0 to 10, 0 no effect, 10 complete control): 0 | B. signalgrass plant response rating (surinam grass; [10]): 0 | Plant response rating, B. signalgrass (surinam grass; [11]): 0 | Plant response rating, B. signalgrass (surinam grass; [12]): 0 | B. signalgrass plant response rating (surinam grass; [6]): 0 | B. signalgrass plant response rating (surinam grass; [7]): 2 | B. signalgrass plant response rating (surinam grass; [8]): 0 | B. signalgrass plant response rating (surinam grass; [9]): 0 | Rape plant response rating (rape; [5]): 0 | Plant response rating, Rape (rape; Preemergence, Rate 62 g/ha): 0 | Plant response rating, Rape (rape; Preemergence, Rate 125 g/ha): 0 | Rape plant response rating (rape; [6]): 0 | Rape plant response rating (rape; [7]): 0 | Rape plant response rating (rape; [8]): 0 | Rape plant response rating (rape; [9]): 0 | Redroot pigweed plant response rating (pigweed; [5]): 0 | Plant response rating, Redroot pigweed (pigweed; Preemergence, Rate 62 g/ha): 2 | Plant response rating, Redroot pigweed (pigweed; Preemergence, Rate 125 g/ha): 5 | Redroot pigweed plant response rating (pigweed; [6]): 10 | Redroot pigweed plant response rating (pigweed; [7]): 10 | Redroot pigweed plant response rating (pigweed; [8]): 0 | Redroot pigweed plant response rating (pigweed; [9]): 0 | Soybean plant response rating (soybean; [5]): 1 | Plant response rating, Soybean (soybean; Preemergence, Rate 62 g/ha): 0 | Plant response rating, Soybean (soybean; Preemergence, Rate 125 g/ha): 0 | Soybean plant response rating (soybean; [6]): 0 | Soybean plant response rating (soybean; [7]): 0 | Soybean plant response rating (soybean; [8]): 1 | Soybean plant response rating (soybean; [9]): 1 | Blackgrass plant response rating (blackgrass; [5]): 0 | Blackgrass plant response rating (blackgrass; [10]): 2 | Plant response rating, Blackgrass (blackgrass; [11]): 0 | Plant response rating, Blackgrass (blackgrass; [12]): 0 | Blackgrass plant response rating (blackgrass; [6]): 2 | Blackgrass plant response rating (blackgrass; [7]): 4 | Blackgrass plant response rating (blackgrass; [8]): 0 | Blackgrass plant response rating (blackgrass; [9]): 0 | Morningglory plant response rating (morningglory; [5]): 2 | Plant response rating, Morningglory (morningglory; Preemergence, Rate 62 g/ha): 0 | Plant response rating, Morningglory (morningglory; Preemergence, Rate 125 g/ha): 0 | Morningglory plant response rating (morningglory; [6]): 0 | Morningglory plant response rating (morningglory; [7]): 0 | Morningglory plant response rating (morningglory; [8]): 0 | Morningglory plant response rating (morningglory; [9]): 0 | Wild oats plant response rating (wild oat; [5]): 0 | Plant response rating, Wild oats (wild oat; Preemergence, Rate 62 g/ha): 0 | Plant response rating, Wild oats (wild oat; Preemergence, Rate 125 g/ha): 0 | Wild oats plant response rating (wild oat; [6]): 0 | Wild oats plant response rating (wild oat; [7]): 0 | Wild oats plant response rating (wild oat; [8]): 0 | Wild oats plant response rating (wild oat; [9]): 0 | Plant response rating, Barnyardgrass (0 to 10 scale, 0 is no effect, 10 is complete control) (bamyardgrass; [1]): 0 | Barnyardgrass plant response rating (0 to 10 scale, 0 is no effect, 10 is complete control) (bamyardgrass; [2]): 0 | Barnyardgrass plant response rating (bamyardgrass; [3]): 0 | Barnyardgrass plant response rating (bamyardgrass; [4]): 0 | Plant response rating, Ducksalad (0 to 10 scale, 0 is no effect, 10 is complete control) (duck salad; [1]): 0 | Ducksalad plant response rating (0 to 10 scale, 0 is no effect, 10 is complete control) (duck salad; [2]): 0 | Ducksalad plant response rating (duck salad; [3]): 0 | Ducksalad plant response rating (duck salad; [4]): 0 | Cocklebur plant response rating (cocklebur; [5]): 0 | Cocklebur plant response rating (cocklebur; [10]): 2 | Plant response rating, Cocklebur (cocklebur; [11]): 0 | Plant response rating, Cocklebur (cocklebur; [12]): 0 | Cocklebur plant response rating (cocklebur; [6]): 0 | Cocklebur plant response rating (cocklebur; [7]): 0 | Cocklebur plant response rating (cocklebur; [8]): 0 | Cocklebur plant response rating (cocklebur; [9]): 0 | Wheat plant response rating (wheat; [5]): 0 | Plant response rating, Wheat (wheat; Preemergence, Rate 62 g/ha): 0 | Plant response rating, Wheat (wheat; Preemergence, Rate 125 g/ha): 0 | Wheat plant response rating (wheat; [6]): 0 | Wheat plant response rating (wheat; [7]): 0 | Wheat plant response rating (wheat; [8]): 0 | Wheat plant response rating (wheat; [9]): 0 | Nutsedge plant response rating (purple nutsedge; [5]): 0 | Plant response rating, Nutsedge (purple nutsedge; Preemergence, Rate 62 g/ha): 0 | Plant response rating, Nutsedge (purple nutsedge; Preemergence, Rate 125 g/ha): 0 | Nutsedge plant response rating (purple nutsedge; [6]): 0 | Nutsedge plant response rating (purple nutsedge; [7]): 0 | Nutsedge plant response rating (purple nutsedge; [8]): 0 | Nutsedge plant response rating (purple nutsedge; [9]): 0 | Corn plant response rating (corn; [5]): 0 | Corn plant response rating (corn; [10]): 0 | Plant response rating, Corn (corn; [11]): 0 | Plant response rating, Corn (corn; [12]): 0 | Corn plant response rating (corn; [6]): 0 | Corn plant response rating (corn; [7]): 0 | Corn plant response rating (corn; [8]): 0 | Corn plant response rating (corn; [9]): 0 | Giant foxtail plant response rating (giant foxtail; [5]): 6 | Giant foxtail plant response rating (giant foxtail; [10]): 6 | Plant response rating, Giant foxtail (giant foxtail; [11]): 0 | Plant response rating, Giant foxtail (giant foxtail; [12]): 0 | Giant foxtail plant response rating (giant foxtail; [6]): 3 | Giant foxtail plant response rating (giant foxtail; [7]): 10 | Giant foxtail plant response rating (giant foxtail; [8]): 0 | Giant foxtail plant response rating (giant foxtail; [9]): 0 | Crabgrass plant response rating (crabgrass; [5]): 2 | Crabgrass plant response rating (crabgrass; [10]): 2 | Plant response rating, Crabgrass (crabgrass; [11]): 0 | Plant response rating, Crabgrass (crabgrass; [12]): 0 | Crabgrass plant response rating (crabgrass; [6]): 2 | Crabgrass plant response rating (crabgrass; [7]): 2 | Crabgrass plant response rating (crabgrass; [8]): 0 | Crabgrass plant response rating (crabgrass; [9]): 0

— patent US6737383B1, “Herbicidal oxadiazolidines” (priority 1999, dated 2004)
